The target in experiment [1] is Epidermal growth factor receptor (Homo sapiens, UniProt P00533, E746-A750DEL). As to the kind of experiment: Inhibition of EGFR E746-A750 deletion mutant in human PC9 cells assessed as inhibition of phosphorylation at Y1068 after 2 hrs by sandwich ELISA method. In kind it is cell-based, PC-9.
In experiment [2] the target is T1, Epidermal growth factor receptor (Homo sapiens, UniProt P00533). As to the kind of experiment: Inhibition of EGFR deletion/T790M mutant in human PC9-DRH cells assessed as inhibition of phosphorylation at Y1068 after 2 hrs by sandwich ELISA method. The class given is cell-based. For orientation: ELISA stands for enzyme-linked immunosorbent assay.
Target sequence in this assay (P00533 25-1210 limits assumed, stated change not applied): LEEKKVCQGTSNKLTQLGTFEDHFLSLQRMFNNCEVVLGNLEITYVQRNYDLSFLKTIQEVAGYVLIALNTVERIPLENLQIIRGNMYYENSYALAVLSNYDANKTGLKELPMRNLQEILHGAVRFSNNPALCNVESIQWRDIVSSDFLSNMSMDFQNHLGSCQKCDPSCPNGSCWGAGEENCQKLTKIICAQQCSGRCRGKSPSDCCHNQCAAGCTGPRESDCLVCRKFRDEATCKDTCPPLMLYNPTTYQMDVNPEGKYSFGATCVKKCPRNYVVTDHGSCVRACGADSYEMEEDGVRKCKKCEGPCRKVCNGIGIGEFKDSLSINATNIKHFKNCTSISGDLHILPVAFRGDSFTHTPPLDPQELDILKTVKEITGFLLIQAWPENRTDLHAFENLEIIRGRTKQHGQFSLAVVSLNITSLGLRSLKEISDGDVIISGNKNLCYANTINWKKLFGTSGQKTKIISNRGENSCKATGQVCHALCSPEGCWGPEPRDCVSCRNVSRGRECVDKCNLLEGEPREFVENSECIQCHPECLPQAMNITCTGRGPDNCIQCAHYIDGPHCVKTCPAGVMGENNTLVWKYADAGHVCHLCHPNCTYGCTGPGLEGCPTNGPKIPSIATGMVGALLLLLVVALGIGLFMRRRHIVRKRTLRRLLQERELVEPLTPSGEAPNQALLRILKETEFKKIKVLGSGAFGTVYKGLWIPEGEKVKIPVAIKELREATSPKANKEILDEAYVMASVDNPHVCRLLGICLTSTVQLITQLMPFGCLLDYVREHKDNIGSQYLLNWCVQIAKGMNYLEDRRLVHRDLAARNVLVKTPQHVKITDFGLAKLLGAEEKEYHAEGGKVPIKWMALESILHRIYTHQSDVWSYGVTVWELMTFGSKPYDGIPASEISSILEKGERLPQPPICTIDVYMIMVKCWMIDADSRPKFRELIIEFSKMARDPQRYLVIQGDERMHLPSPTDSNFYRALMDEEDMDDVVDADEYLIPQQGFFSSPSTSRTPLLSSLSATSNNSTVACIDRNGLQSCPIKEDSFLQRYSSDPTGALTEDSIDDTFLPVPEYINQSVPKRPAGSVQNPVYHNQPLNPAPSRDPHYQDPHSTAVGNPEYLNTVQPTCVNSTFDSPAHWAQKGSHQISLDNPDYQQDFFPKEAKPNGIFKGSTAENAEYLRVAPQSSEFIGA
The target of experiment [3] is T1, Epidermal growth factor receptor. As to the kind of experiment: Inhibition of wild type EGFR in human A549 cells assessed as inhibition of phosphorylation at Y1068 after 2 hrs by sandwich ELISA method. The class given is cell-based.
Target sequence in this assay (P00533 whole entry): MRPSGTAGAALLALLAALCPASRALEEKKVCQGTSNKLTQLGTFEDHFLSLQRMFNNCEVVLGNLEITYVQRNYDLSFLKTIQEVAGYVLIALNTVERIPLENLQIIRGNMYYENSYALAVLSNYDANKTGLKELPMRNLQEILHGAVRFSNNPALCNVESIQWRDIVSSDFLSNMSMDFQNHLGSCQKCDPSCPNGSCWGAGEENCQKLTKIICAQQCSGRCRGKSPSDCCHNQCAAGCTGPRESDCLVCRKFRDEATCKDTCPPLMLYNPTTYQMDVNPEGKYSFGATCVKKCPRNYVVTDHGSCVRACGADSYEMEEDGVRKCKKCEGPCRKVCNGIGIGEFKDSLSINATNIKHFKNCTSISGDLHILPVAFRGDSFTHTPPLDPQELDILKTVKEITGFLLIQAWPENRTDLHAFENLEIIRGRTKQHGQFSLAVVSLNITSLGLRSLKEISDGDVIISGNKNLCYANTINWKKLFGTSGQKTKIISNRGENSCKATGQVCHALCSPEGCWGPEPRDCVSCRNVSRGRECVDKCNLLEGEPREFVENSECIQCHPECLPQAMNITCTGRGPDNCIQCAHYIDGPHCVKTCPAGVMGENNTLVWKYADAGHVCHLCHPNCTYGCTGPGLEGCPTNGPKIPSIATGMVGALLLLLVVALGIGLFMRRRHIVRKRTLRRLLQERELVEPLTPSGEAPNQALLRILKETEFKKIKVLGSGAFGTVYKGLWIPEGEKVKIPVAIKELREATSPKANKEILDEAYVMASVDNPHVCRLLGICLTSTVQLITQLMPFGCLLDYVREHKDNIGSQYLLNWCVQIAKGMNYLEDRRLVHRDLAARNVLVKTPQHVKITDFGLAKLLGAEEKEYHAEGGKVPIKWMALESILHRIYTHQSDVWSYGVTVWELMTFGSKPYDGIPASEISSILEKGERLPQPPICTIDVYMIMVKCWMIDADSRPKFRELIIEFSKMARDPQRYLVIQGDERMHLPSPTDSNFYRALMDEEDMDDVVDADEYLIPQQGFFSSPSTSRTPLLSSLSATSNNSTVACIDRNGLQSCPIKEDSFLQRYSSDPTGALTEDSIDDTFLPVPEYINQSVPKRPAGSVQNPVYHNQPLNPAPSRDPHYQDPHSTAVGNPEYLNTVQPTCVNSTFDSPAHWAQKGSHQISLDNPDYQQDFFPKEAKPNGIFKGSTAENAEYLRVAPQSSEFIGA

Each structure is given as a SMILES string.

Epidermal growth factor receptor (Homo sapiens, UniProt P00533, E746-A750DEL), sequence (P00533 whole entry E746-A750del, looked up): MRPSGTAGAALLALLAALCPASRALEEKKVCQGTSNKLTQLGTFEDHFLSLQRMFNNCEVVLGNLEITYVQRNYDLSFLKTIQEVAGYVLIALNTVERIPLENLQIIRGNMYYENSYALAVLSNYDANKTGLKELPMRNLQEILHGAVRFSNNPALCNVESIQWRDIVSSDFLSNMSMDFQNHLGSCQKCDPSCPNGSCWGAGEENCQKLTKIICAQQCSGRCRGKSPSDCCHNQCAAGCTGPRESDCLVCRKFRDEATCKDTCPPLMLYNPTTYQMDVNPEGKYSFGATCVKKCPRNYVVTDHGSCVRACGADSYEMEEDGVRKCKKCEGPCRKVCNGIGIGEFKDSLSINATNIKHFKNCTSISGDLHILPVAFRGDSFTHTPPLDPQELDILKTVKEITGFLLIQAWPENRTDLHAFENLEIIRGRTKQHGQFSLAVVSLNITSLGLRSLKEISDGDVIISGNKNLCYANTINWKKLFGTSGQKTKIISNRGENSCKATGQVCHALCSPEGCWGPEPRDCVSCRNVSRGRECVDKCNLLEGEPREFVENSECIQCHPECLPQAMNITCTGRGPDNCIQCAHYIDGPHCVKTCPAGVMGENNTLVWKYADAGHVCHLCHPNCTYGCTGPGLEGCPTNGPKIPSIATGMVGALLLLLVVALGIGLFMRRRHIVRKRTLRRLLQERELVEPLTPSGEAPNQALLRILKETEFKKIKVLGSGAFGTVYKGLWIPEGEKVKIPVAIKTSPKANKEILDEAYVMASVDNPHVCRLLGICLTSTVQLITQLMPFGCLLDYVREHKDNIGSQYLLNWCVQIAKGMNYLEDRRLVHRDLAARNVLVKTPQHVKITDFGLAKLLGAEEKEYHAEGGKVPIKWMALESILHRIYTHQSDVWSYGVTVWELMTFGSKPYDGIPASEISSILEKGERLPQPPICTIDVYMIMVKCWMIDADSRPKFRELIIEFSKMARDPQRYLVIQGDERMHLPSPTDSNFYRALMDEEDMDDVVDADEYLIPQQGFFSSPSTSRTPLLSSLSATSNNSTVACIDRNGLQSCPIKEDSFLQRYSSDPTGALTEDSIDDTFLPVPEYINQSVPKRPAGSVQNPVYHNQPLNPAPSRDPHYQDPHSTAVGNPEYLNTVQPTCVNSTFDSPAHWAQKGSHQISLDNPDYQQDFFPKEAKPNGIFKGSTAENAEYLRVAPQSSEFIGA

As to `C=CC(=O)N1C[C@@H]2CN(c3nc(Nc4ccc(N5CCN(C)CC5)cc4)c4ncn(C(C)C)c4n3)C[C@@H]2C1`, the IC50 (commonly the concentration that inhibits the measured activity by half) in experiment [1] was found to be 8 nM; in experiment [2] it was 18 nM.

Turning to `C=CC(=O)N[C@H]1CCN(c2nc(Nc3ccc(N4CCN(C)CC4)cc3)c3ncn(CCO)c3n2)C1`, the IC50 in experiment [1] was determined as 31 nM.

`C=CC(=O)N[C@@H]1CN(c2nc(Nc3cn(C)nc3C)c3ncn(C(C)C)c3n2)C[C@H]1F`: the results for the half-maximal inhibitory concentration (IC50) in experiment [3], in experiment [1] and in experiment [2] were 10000 nM, 6650 nM and 2130 nM, respectively.

Regarding `C=CC(=O)N[C@@H]1CN(c2nc(Nc3cn(CC)nc3OC)c3ncn(C)c3n2)C[C@H]1F`, the values for the IC50 in experiment [1] and in experiment [2] were 6 nM and 1 nM, respectively.

These data come from ChEMBL document CHEMBL3608213, “Inhibitors of the Epidermal Growth Factor Receptor (EGFR) May Provide Effective Treatment for Lung Adenocarcinoma” (ACS Med Chem Lett, 2015).
